Laboratory results published in publication PMC9088311, “Cyclic Thiosulfonates for Thiol-Mediated Uptake: Cascade Exchangers, Transporters, Inhibitors” (JACS Au, 2022).
In brackets after ≈: the same amount, converted by molar mass. Like-named read-outs stand apart in the source and are kept apart here.

How the values were obtained:
[1] = Decarboxylation/stability of cyclic carbonate 11 in deuterated buffer; format: physicochemical; settings: for t50 (decarboxylation of 11 to 12): deuterated buffer/DMSO-d6 95:5, rt
Method: Figure 3 (A) Comparison of ring-opening rate constants (k^O) for the exchange reactions of 2, 3, and 11–18 with 10 (Table 1); (a) deuterated buffer/DMSO-d6 95:5, rt, t50 = <15 min, 84 min, 18 h, and ≫24 h at pD 7.9, 6.7, 5.4, and 4.7, respectively. (B) Dynamic covalent ring opening of CTO 3 and thiol 10 to give product 9. (C) Original kinetic data for the equilibration of 3 with 10 at pD 2.7 in deuterated phosphate buffer/DMSO-d6 9:1. Gold triangles: 3; purple circles: 9; filled diamonds: 10; empty diamonds: homo-disulfide of 10. (D) Dependence of K (filled circles) and rate constants (relative, k at 90% D2O as 1, k^O filled diamonds, k^C empty diamonds) for 3 with 10 at pD 2.7 (estimate) on solvent polarity. (E–G) Fluoride complexes of 1,2-dithiane 1,1-dioxide (E), 1,2-dithiane 1-oxide (F), and 1,2-dithiane (G), calculated with M06-2X/6-311++G** (green: F^–, yellow: S, red: O, gray: C, white: H). (H, I) Chloride complexes of 3 (H) and 1 (I, green: Cl^–, in parentheses: bond length for F^–). (J) Fragmentation of 11 with 10; (b) 10, DMSO-d6, rt.
The strained cyclic carbonate 11 was considered to accelerate CTO opening and further stabilize the opened form (entry 12). However, at pD 7.9, carbonate 11 decarboxylated within 15 min to CTO alkene 12. This degradation decelerated with decreasing pD to afford stable carbonate 11 for at least 1 day at pD 4.7 (Figure 3A). Ring opening of 11 was too fast even at pD 2.7, it proceeded to near completion with a >100× higher rate than 3. Decarboxylated alkene 12 reacted also very fast, the apparently lower rate is the consequence of more favorable ring closure back to 12 due to preorganization by the cis alkene (entry 13). The alternative Michael addition of thiol 10 to alkene 12 was not observed (Figure S12).

[2] = in vitro; settings: human
[3] = test system: HK cells, transporter 28; assay: HCHT imaging: inhibition of cytosolic delivery of CTO transporter 28; format: cell-based, Human; settings: inhibitor 1 h; for IC50 / IC15: Homo sapiens; for IC15: read-out: MIC (concentration needed to reach 15% inhibition), transporter 28 5 μM
[4] = test system: HK cells, transporter 31; settings: transporter 31 10 μM, pre-incubation (P), cited from earlier work; for IC50: read-out: IC50 (concentration needed to reach 50% inhibition)
[5] = test system: HeLa Kyoto cells; settings: with transporter 31; pre-incubation (P); cited from earlier work
[6] = test system: trypsin; assay: Trypsin inhibition (preliminary, not shown); format: biochemical; settings: 50 μM; preliminary results
[7] = target: cathepsin B (Homo sapiens, UniProt P07858); assay: Cathepsin B inhibition (preliminary, not shown); format: biochemical; settings: 50 μM; preliminary results
[8] = test system: HK cells, transporter 32; parameters: method as in PMID 34173696; settings: transporter 32 0.5 or 1 μM, pre-incubation (P), cited from earlier work
[9] = target: cathepsin L (Homo sapiens, UniProt P07711); assay: Cathepsin L inhibition (preliminary, not shown); format: biochemical; settings: 50 μM; preliminary results
[10] = transporter 28 5 μM, co-incubation (C)
[11] = read-out: IC50 (concentration needed to reach 50% inhibition), transporter 28 5 μM, pre-incubation (P)

Chain of cathepsin L (P07711 114-333, species assumed): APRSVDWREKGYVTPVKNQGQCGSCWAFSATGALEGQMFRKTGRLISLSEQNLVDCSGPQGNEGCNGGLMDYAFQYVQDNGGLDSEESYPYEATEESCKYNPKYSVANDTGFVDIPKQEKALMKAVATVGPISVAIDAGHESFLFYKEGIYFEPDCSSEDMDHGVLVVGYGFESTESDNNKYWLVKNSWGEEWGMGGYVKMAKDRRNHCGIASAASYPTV

Row | SMILES | viability at 7 h, 50 µM [2] [%] | IC15 ([3]; 1 h, co-incubation (C)) [µM] | MIC (concentration needed to reach 15% inhibition) [3, 10] [µM] | IC50 [4] [µM] | MIC (concentration needed to reach 15% inhibition) [4] [µM] | IC15 ([3]; 1 h, pre-incubation (P)) [µM] | IC50 [3, 11] [µM] | RV50 (concentration needed to lower relative viability by 50%) [5] [µM] | inhibition of trypsin (in words) [6] | inhibition of cathepsin B (in words) [7] | inhibition of cathepsin L (in words) [9] | other results
1 | O=C1O[C@H]2CSS(=O)(=O)C[C@H]2O1 [Compound 11] | 84 | < 1 | <1 | – | – | – | – | – | – | – | – | t50 (decarboxylation of 11 to 12) ([1]; pD 4.7): > 24 h; t50 (decarboxylation of 11 to 12) ([1]; pD 5.4): 18 h; t50 (decarboxylation of 11 to 12) ([1]; pD 6.7): 1.4 h; t50 (decarboxylation of 11 to 12) ([1]; pD 7.9): < 0.25 h; time stable ([1]; pD 4.7): at least 1 day; time of decarboxylation to CTO alkene 12 ([1]; pD 7.9): ≤ 15 min; IC50 ([3]; 1 h, read-out: IC50 (concentration needed to reach 50% inhibition), transporter 28 5 μM, co-incubation (C)): 70 ± 20 µM
2 | [O-][S+]1C[C@@H](O)[C@@H](O)CS1 (stereo partly drawn) [Compound 2] | – | – | – | > 5000 | 800 (≈ 135 µg/mL) | > 50 | > 100 | 4400 | – | – | – | MIC (concentration needed to reach 15% inhibition) ([3]; transporter 28 5 μM, pre-incubation (P)): >50 µM
3 | O=S1(=O)C[C@H](O)[C@H](O)CS1 (stereo in doubt) [Compound 3, (4S,5R)-4,5-dihydroxy-1,2-dithiane-1,1-dioxide] | 81 | – | – | > 1000 | 200 (≈ 36.8 µg/mL) | 5 | 60 | 1300 | inhibits | inhibits | not L | IC50 ([8]; read-out: IC50 (concentration needed to reach 50% inhibition)): 550 µM; MIC (concentration needed to reach 15% inhibition) [8]: 250 µM (≈ 46.1 µg/mL)
4 | O=S1(=O)C=C[C@@H](O)CS1 [Compound 12] | – | 4.8 | 5 | – | – | – | – | – | inhibit only cathepsin B | inhibit only cathepsin B | inhibit only cathepsin B | IC50 ([3]; read-out: IC50 (concentration needed to reach 50% inhibition), transporter 28 5 μM, co-incubation (C)): 60 µM
